Results taken from US8415469B2, “Compounds and methods for kinase modulation, and indications therefor” (Plexxikon Inc., priority 2005, dated 2013).

Columns and labels:
Type in all cases: biochemical
Plk1 = Plk1 (Homo sapiens, UniProt P53350); experiment: AlphaScreen kinase assay, Plk1; conditions: read-out: IC50, activity toward kinase Plk1
Excerpt: AlphaScreen assay was used to screen additional kinases. The assay is similarly dependent on the phosphorylation of a peptide substrate. In this assay, an antibody that recognizes phosphorylated substrate is bound to an acceptor bead. The peptide substrate is attached to biotin, which binds to a donor head that contains streptavidin. Thus phosphorylated substrate is bound by antibody and streptavidin, bringing the donor and acceptor heads into close proximity when kinase is not inhibited. The donor produces singlet oxygen which results in emission from the acceptor when they are in close proximity. Conversely, when kinase is inhibited, the donor and acceptor beads are not associated and the emission from the acceptor is reduced.
AlphaScreen assays were done using compounds dissolved in DMSO to a concentration of 20 mM. The compounds were diluted accordingly to the desired final concentrations in each sample well, using 1:3 serial dilution for a total of 8 concentration points.

Flt1 = target: T1, Flt1 (Homo sapiens, UniProt P17948); experiment: AlphaScreen kinase assay, Flt1; conditions: read-out: IC50, activity toward kinase Flt1
T1 construct: P1826.pETN6 BI-PTP FLT1 M799-D1165-X WT; His6 (N); made in house; host or cells: E. coli (PTP1B co-expressed)
T1 sequence (P17948 with tags, fused parts or gaps): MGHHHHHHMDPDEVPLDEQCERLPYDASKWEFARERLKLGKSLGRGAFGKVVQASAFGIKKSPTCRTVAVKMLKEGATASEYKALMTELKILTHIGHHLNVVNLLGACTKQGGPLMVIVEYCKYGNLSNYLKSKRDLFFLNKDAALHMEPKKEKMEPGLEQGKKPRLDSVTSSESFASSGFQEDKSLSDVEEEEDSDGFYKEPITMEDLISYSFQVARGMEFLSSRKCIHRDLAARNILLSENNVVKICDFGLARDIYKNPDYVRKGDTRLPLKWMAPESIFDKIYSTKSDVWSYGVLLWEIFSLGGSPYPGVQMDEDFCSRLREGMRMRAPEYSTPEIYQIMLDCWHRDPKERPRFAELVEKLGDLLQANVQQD

Kdr = target: T2, Kdr (Homo sapiens, UniProt P35968); experiment: Z'-Lyte FRET kinase assay (Invitrogen), Kdr; conditions: read-out: IC50, activity toward kinase Kdr
T2 construct: purchased Invitrogen (assay run by Invitrogen)

Kit = target: T3, Kit (Homo sapiens, UniProt P10721); experiment: AlphaScreen kinase assay, Kit; conditions: read-out: IC50, activity toward kinase Kit
T3 construct: P1332.N6 BI PTP KIT M552-K948-X COD; His6 (N); made in house; host or cells: E. coli (PTP1B co-expressed)

Stk6 = target: T4, Stk6 (Homo sapiens, UniProt O14965); experiment: Z'-Lyte FRET kinase assay (Invitrogen), Stk6; conditions: read-out: IC50, activity toward kinase Stk6
T4 construct: purchased Invitrogen (Carlsbad, Calif.), screening service
T4 sequence (O14965 1-403): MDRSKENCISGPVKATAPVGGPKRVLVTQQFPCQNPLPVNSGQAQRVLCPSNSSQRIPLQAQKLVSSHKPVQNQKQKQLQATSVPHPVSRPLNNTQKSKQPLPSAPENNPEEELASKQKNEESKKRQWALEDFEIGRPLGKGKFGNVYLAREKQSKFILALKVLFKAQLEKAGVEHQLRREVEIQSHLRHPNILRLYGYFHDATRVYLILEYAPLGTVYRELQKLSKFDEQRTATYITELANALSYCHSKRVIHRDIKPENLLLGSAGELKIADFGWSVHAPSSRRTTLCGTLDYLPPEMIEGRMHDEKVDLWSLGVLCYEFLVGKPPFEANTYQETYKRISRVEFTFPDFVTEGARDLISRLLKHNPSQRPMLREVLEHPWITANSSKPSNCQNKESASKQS

MAP2K1 = target: T5, MAP2K1 (Homo sapiens, UniProt Q02750); experiment: Z'-Lyte FRET kinase assay (Invitrogen), MAP2K1; conditions: read-out: IC50, activity toward kinase MAP2K1
T5 construct: purchased Invitrogen (assay run by Invitrogen)

Pyk2 = target: T6, Pyk2 (Homo sapiens, UniProt Q14289); experiment: AlphaScreen kinase assay, Pyk2; conditions: read-out: IC50, activity toward kinase Pyk2
T6 construct: purchased Upstate Biotechnology

Fak = target: T7, Fak (Homo sapiens, UniProt Q05397); experiment: AlphaScreen kinase assay, Fak; conditions: read-out: IC50, activity toward kinase Fak
T7 construct: P1358.pFastBacHtb FAK S411-Q686-X; His6 with pFastBacHTb leader (TEV site) (N); made in house; host or cells: Sf9 (baculovirus)

Yes = target: T8, Yes (Homo sapiens, UniProt P07947); experiment: Z'-Lyte FRET kinase assay (Invitrogen), Yes; conditions: read-out: IC50, activity toward kinase Yes
T8 construct: purchased Invitrogen (Carlsbad, Calif.), screening service
In short: (§1)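 10 μM ATP, 2 μM peptide, 1% DMSO final; HEPES pH 7.5 buffer with MgCl2/EGTA/BRIJ-35. Kinase rxn 1 h RT, protease development 1 h RT, stop, read donor/acceptor ratio. Compound titrated.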

Btk = target: T9, Btk (Homo sapiens, UniProt Q06187); experiment: Z'-Lyte FRET kinase assay (Invitrogen), Btk; conditions: read-out: IC50, activity toward kinase Btk
T9 construct: purchased Invitrogen (assay run by Invitrogen)

EphB2 = target: T10, EphB2 (Homo sapiens, UniProt P29323); experiment: Z'-Lyte FRET kinase assay (Invitrogen), EphB2; conditions: read-out: IC50, activity toward kinase EphB2
T10 construct: purchased Invitrogen (assay run by Invitrogen)
T10 sequence (P29323 19-1055): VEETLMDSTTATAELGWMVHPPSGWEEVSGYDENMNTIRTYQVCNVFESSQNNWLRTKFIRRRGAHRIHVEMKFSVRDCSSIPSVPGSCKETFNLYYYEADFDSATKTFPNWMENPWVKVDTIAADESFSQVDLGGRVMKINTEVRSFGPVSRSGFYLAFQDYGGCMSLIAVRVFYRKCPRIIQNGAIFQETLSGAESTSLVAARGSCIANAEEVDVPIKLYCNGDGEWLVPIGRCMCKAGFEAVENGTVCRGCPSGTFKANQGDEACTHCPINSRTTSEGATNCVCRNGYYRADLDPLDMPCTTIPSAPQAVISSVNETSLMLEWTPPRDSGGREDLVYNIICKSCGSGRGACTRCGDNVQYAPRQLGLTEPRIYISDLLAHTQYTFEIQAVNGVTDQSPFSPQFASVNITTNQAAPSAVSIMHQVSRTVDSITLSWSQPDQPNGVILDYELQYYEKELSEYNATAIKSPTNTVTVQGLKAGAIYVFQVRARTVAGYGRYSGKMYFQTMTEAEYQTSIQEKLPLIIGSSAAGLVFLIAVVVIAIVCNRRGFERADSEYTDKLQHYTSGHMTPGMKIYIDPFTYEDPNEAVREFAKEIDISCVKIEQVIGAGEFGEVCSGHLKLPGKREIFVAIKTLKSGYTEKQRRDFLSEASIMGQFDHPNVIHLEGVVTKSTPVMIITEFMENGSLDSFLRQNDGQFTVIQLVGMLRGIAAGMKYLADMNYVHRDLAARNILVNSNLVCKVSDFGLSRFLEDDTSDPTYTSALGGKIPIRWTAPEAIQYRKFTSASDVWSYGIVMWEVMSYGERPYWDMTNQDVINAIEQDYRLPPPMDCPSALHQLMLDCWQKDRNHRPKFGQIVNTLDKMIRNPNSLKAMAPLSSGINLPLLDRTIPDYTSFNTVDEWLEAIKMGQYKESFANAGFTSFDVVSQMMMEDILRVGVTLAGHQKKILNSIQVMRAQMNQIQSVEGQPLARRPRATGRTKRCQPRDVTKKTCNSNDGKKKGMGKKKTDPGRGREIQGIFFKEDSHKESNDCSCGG
In short: as §1

Ret = target: T11, Ret (Homo sapiens, UniProt P07949); experiment: AlphaScreen kinase assay, Ret; conditions: read-out: IC50, activity toward kinase Ret
T11 construct: P1378.pET-SF BI-PTP RET H661-R1012 HIS; made in house
T11 sequence (P07949 with tags, fused parts or gaps): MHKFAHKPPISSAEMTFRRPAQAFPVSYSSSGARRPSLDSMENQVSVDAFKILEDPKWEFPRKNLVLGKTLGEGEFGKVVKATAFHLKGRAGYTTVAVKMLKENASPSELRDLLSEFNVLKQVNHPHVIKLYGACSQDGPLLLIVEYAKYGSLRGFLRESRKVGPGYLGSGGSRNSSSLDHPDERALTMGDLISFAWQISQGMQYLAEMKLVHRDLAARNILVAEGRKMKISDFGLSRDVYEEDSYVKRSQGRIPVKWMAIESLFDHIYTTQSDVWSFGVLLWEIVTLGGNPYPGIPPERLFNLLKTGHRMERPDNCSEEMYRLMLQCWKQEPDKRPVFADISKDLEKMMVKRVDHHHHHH

B-Raf V600E = target: T12, B-Raf V600E (Homo sapiens, UniProt P15056, V600E); experiment: AlphaScreen kinase assay, B-Raf V600E; conditions: read-out: IC50, activity toward kinase B-Raf V600E
T12 construct: P4254. pFastBacBD-CDC37 BRAF D437-K722-X, V600E; His6 with pFastBac HT leader (TEV site) (N); made in house; host or cells: Sf9 (baculovirus; chaperone CDC37 co-expressed)

FGFR1 = target: T13, FGFR1 (Homo sapiens, UniProt P11362, C488A/C584S); experiment: AlphaScreen kinase assay, FGFR1; conditions: read-out: IC50, activity toward kinase FGFR
T13 construct: P1351.pET N6 BI-PTP FGFR A458-E765-X C488A, C584S; made in house; host or cells: E. coli (PTP1B co-expressed)

Akt3 = Akt3 (Homo sapiens, UniProt Q9Y243); experiment: AlphaScreen kinase assay, Akt3; conditions: read-out: IC50, activity toward kinase Akt3
In short: (§2)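 Here, phosphorylation of a biotin-tagged peptide was sensed by proximity of streptavidin donor and antibody-bearing acceptor beads. Test compounds covered 8 concentrations by 1:3 serial dilution of 20 mM DMSO stocks.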

Zap70 = target: T14, Zap70 (Homo sapiens, UniProt P43403); experiment: AlphaScreen kinase assay, Zap70; conditions: read-out: IC50, activity toward kinase Zap70
T14 construct: P1868.pFastBac1 ZAP70 D327-G606 HIS, WT; His7 (HHHHHHH) (C); made in house
T14 sequence (P43403 with tags, fused parts or gaps): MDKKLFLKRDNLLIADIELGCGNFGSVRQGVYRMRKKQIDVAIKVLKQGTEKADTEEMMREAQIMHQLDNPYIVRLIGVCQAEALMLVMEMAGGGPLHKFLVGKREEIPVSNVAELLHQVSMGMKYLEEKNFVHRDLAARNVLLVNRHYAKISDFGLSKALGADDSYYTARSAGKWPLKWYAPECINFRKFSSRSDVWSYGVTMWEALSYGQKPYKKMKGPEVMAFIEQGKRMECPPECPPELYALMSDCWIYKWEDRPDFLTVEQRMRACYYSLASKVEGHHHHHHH
In short: as §2

Gsk3β = Gsk3β (Homo sapiens, UniProt P49841); experiment: AlphaScreen kinase assay, Gsk3β; conditions: read-out: IC50, activity toward kinase Gsk3β
In short: as §2

Measured: IC50

T9 sequence (Q06187 whole entry): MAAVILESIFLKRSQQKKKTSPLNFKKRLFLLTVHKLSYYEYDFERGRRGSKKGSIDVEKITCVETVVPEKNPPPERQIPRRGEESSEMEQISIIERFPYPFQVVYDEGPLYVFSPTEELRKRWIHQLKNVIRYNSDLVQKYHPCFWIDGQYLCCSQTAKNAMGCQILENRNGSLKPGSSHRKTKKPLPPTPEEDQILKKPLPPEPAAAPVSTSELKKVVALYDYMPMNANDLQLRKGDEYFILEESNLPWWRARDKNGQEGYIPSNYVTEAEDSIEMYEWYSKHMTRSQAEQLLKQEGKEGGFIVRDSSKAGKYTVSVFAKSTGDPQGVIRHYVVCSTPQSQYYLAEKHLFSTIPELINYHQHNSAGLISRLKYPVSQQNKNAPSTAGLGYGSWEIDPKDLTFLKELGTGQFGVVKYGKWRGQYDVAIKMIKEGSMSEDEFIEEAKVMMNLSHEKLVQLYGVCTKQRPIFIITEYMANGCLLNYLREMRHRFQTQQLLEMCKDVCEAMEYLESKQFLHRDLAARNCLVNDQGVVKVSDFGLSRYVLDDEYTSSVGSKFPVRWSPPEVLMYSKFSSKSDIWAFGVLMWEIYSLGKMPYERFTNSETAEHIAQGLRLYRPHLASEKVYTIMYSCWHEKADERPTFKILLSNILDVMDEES
T12 sequence (P15056 with tags, fused parts or gaps V600E): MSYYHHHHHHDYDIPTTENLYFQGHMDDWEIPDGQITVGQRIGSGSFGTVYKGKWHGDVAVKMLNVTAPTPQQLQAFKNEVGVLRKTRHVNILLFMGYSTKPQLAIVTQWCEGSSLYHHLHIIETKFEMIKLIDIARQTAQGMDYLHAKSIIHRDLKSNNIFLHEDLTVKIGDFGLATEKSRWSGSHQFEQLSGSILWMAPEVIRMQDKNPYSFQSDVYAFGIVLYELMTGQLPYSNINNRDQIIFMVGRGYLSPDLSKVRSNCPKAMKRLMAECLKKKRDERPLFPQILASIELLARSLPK
Chain of Plk1 (P53350 whole entry): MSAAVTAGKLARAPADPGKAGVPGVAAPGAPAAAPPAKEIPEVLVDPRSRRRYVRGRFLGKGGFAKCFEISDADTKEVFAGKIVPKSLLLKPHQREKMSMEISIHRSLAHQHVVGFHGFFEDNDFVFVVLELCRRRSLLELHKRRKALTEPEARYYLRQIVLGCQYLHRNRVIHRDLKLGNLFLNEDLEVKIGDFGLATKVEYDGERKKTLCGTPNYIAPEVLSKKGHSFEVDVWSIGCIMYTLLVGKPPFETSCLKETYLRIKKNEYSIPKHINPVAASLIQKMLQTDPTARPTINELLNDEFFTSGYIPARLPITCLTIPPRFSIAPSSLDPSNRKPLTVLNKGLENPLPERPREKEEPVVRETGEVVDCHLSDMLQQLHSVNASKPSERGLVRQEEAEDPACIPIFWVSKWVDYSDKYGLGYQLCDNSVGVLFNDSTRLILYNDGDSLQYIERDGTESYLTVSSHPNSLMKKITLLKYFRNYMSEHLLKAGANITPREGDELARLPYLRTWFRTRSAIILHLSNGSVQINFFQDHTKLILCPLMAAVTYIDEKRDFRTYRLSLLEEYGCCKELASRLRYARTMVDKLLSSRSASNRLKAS
T2 sequence (P35968 20-1356): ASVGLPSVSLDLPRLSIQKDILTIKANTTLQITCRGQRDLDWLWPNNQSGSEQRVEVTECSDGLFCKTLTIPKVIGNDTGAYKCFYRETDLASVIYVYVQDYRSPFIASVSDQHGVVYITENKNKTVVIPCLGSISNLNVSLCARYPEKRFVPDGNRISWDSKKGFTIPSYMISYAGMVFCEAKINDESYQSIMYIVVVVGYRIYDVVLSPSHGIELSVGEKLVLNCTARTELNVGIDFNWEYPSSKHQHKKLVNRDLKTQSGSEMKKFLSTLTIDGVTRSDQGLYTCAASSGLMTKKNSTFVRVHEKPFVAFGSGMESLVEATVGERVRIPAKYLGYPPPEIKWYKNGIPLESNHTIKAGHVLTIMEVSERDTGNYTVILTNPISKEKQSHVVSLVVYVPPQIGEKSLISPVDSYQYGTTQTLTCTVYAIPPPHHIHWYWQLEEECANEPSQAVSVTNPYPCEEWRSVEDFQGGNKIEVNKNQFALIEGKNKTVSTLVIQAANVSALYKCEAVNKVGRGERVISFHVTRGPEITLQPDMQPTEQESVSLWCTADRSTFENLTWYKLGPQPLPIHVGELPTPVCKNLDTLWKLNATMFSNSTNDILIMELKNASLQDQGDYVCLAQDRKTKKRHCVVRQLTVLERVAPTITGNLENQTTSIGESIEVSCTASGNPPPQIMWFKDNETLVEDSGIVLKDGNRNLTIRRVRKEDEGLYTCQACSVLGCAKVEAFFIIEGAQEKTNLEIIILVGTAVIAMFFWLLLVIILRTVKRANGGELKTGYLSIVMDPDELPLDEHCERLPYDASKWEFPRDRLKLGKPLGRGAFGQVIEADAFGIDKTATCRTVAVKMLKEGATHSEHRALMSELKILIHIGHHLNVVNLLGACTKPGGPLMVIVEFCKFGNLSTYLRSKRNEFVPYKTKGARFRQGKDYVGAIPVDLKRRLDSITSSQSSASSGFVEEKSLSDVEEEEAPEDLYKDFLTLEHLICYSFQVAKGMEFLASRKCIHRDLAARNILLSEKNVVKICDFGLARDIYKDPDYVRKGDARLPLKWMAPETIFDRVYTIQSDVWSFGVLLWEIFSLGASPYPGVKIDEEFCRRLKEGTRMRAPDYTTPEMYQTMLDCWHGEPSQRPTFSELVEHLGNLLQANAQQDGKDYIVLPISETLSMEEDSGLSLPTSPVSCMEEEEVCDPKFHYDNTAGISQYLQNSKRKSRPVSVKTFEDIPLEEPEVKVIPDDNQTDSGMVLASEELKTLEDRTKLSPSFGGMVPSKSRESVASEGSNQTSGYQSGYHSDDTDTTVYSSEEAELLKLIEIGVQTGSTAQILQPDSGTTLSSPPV
T5 sequence (Q02750 whole entry): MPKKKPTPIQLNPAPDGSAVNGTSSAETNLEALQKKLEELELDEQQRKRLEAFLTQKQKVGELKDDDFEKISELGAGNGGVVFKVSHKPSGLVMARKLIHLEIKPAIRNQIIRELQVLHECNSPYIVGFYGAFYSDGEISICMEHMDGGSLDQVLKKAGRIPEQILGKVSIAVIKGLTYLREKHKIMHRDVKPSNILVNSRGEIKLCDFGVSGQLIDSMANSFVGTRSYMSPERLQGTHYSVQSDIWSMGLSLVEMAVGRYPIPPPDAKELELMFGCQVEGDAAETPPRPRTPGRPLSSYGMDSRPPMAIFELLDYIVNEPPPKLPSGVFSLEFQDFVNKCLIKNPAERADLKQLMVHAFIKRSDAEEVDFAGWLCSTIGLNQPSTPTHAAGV
Chain of Gsk3β (P49841 whole entry): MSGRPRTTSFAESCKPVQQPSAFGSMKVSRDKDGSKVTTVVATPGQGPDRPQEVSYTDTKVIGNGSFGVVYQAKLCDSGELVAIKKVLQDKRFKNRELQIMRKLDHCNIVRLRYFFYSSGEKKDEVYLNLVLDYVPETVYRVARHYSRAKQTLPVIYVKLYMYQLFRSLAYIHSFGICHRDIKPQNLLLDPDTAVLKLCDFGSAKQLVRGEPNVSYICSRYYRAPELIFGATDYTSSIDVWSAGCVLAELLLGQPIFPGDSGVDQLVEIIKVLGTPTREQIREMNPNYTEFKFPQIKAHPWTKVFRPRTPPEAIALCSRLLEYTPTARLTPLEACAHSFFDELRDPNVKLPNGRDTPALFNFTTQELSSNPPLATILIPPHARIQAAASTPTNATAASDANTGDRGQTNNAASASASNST
T3 sequence (P10721 with tags, fused parts or gaps): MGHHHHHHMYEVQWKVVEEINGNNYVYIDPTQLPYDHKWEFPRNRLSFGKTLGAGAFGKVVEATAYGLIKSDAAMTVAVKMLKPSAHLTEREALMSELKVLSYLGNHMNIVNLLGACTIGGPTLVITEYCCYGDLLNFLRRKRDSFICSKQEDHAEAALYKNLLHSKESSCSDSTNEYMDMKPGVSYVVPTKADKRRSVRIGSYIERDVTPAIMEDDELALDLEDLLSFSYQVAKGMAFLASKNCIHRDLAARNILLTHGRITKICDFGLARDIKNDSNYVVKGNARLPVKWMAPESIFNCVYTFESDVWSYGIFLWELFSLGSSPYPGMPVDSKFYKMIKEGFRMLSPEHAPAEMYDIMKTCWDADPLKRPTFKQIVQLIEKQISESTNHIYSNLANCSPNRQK
T8 sequence (P07947 whole entry): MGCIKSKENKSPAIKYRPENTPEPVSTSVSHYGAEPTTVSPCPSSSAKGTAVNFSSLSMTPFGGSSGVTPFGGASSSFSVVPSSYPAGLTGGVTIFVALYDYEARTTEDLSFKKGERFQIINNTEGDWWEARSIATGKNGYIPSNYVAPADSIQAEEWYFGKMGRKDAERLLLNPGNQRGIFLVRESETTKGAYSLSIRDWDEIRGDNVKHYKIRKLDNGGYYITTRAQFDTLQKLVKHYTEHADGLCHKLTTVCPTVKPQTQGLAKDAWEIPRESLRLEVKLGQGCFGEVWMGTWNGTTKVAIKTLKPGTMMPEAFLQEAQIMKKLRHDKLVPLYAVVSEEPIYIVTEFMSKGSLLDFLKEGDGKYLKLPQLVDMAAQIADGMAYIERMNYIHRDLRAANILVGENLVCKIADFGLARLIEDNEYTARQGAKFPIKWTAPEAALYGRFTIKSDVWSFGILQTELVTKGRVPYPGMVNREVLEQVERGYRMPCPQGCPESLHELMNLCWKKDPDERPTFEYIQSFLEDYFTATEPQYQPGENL
T7 sequence (Q05397 411-686): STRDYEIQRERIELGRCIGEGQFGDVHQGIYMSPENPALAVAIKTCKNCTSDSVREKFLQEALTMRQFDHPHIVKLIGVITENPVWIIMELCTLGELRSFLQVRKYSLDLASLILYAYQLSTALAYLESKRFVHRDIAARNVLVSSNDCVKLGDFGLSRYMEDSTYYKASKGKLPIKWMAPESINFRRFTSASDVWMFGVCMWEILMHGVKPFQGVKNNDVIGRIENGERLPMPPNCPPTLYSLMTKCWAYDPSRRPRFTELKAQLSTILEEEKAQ

Cc1occc1Sc1c[nH]c2ncccc12 [Compound P-0018]
≤ 10 µM: Plk1 | Flt1 | Kdr | Kit | Stk6 | MAP2K1 | Pyk2 | Fak

Nc1cccc(-c2ccnc3[nH]cc(C(=O)c4cccc(Cl)c4Cl)c23)c1 [Compound P-0075]
≤ 10 µM: Plk1 | Kdr | Yes | Btk | EphB2 | Ret | B-Raf V600E

Cc1ccccc1C(=O)c1c[nH]c2nccc(-c3cccnc3)c12 [Compound P-0083]
≤ 10 µM: Plk1 | Yes | Btk | EphB2 | Ret

COc1cccc(C(=O)c2c[nH]c3nccc(-c4cccc(N)c4)c23)c1 [Compound P-0099]
≤ 10 µM: Plk1 | FGFR1 | Stk6 | MAP2K1 | Akt3 | Ret | B-Raf V600E

Clc1ccc(Cc2c[nH]c3nccc(-c4ccsc4)c23)cn1 [Compound P-0123]
≤ 10 µM: Plk1 | Zap70 | Gsk3β | Kit | Stk6 | Ret

Nc1cccc(-c2ccnc3[nH]cc(C(=O)c4ccc(Cl)cc4)c23)c1 [Compound P-0148]
≤ 10 µM: Plk1 | Gsk3β | Btk | Stk6 | Ret | B-Raf V600E
